Measurements published in publication PMC11091879, “Inhibitors of the Thioesterase Activity of Mycobacterium tuberculosis Pks13 Discovered Using DNA-Encoded Chemical Library Screening” (ACS Infectious Diseases, 2024).
Converted amounts (≈) assume the structure as drawn. Read-outs that look alike come from different tables or passages of the source.

Columns and labels:
in vitro [1] = conditions: human, plasma
[2] = in vivo, po
[3] = Mouse pharmacokinetics studies; conditions: female, CD-1, mouse, plasma
Pks13-TE = Pks13-TE (Mycobacterium tuberculosis, UniProt I6X8D2); test: biochemical; format: binding
Chain of Pks13-TE (I6X8D2 1451-1733 limits assumed): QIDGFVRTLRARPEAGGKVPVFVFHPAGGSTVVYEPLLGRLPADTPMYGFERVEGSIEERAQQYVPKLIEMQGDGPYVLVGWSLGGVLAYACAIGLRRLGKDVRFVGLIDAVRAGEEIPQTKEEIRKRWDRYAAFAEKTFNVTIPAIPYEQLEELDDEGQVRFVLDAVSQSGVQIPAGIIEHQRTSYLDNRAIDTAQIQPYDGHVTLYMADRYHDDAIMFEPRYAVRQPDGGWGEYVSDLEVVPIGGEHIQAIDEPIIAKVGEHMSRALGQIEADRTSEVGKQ

[4] = tested on: pks13-TetON -ATc (hypomorph); format: cell-based, Mycobacterium tuberculosis
in vitro [5] = conditions: mouse, microsomes
Mtb H37Rv = tested on: Mtb H37Rv; design: species or system Mycobacterium tuberculosis; conditions: in vivo, po
WT H37Rv = test: microbe, parasite or virus in culture; format: cell-based, Mycobacterium tuberculosis; conditions: Mycobacterium tuberculosis, H37RV
[6] = Metabolic stability in mouse liver microsomes (MLMs)
in vivo = conditions: female, CD-1, mouse
in vitro [7] = conditions: mouse, plasma
[8] = tested on: pks13-TetON +ATc (Pks13-hypermorph); format: cell-based, Mycobacterium tuberculosis

Compound: COc1ccc(OC)c(-c2ccc(-c3cn(CCc4ccc(C(=O)N(C)C)cc4)nn3)cn2)c1 [X20404]
- fraction unbound at 4 h, 10000 ng/mL (in vitro [1]): 0.044
- fold higher maximum concentration in blood compared to three other compounds ([2]; female, CD-1, mouse, 25 mg/kg): ~10 fold
- plasma concentrations relative to MIC ([2]; mouse, 200 mg/kg): above the MIC
- half-life ([3]; intravenous, 5 mg/kg): 36 min
- AUC(0-t) ([3]; iv, 5 mg/kg): 13500 ng·h/mL
- AUC(0-t) ([3]; po, 25 mg/kg): 3700 ng·h/mL
- AUC(0-t) ([3]; po, 50 mg/kg): 14200 ng·h/mL
- AUC(0-t) ([3]; po, 100 mg/kg): 33300 ng·h/mL
- AUC(0-t) ([3]; po, 200 mg/kg): 98100 ng·h/mL
- IC50 (Pks13-TE; IC50 (enzyme inhibition)): 0.4 µM
- IC50 (Pks13-TE; IC50 (uM)): 0.43 µM
- Hypomorph MIC fold shift (WT/-ATc) [4]: 2.9 fold
- microsomal CLint at 5 μM (in vitro [5]): 26.2 µL/min/mg
- reduction of the lung CFU compared to untreated control (Mtb H37Rv; 100 mg/kg): approximately 0.4 log10
- reduction of the lung CFU compared to untreated control (Mtb H37Rv; 200 mg/kg): 0.8 log10
- MIC (WT H37Rv; read-out: MIC (Mtb inhibition)): 0.25 µM (≈ 0.114 µg/mL)
- MIC (WT H37Rv; read-out: MIC (whole cell activity)): 0.25 µM (≈ 0.114 µg/mL)
- MIC (WT H37Rv; read-out: WT H37Rv MIC (uM)): 0.25 µM (≈ 0.114 µg/mL)
- half-life at 5 μM [6]: 26.8 min
- Vd (in vivo): 0.3 L/kg
- bioavailability (in vivo): 8%
- clearance (in vivo): 6.2 mL/min/kg
- fraction unbound at 4 h, 10000 ng/mL (in vitro [7]; mouse PPB (%)): 0.023
- fraction unbound at 4 h, 10000 ng/mL (in vitro [7]; plasma protein binding): 0.02
- Hypermorph MIC fold shift (+ATc/WT) [8]: 2.3 fold
